Test system: TFEB
Experiment: TFEB nuclear translocation assay, HeLa wt cells
Format: cell-based
Conditions: Homo sapiens, HeLa, 2 h, 2 hrs compound treatment, Table 1 does not say HeLa wt or TRPML1 KO
How it was run: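 Cells are plated overnight, exposed to compounds for 2 hrs at 37° C, fixed with 4% PFA, blocked, and stained overnight at 4° C with rabbit anti-TFEB. After Alexa 488 secondary and Hoechst, nuclei and a perinuclear ring are segmented to give a nuclear:ring intensity ratio and AC50.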

Row | SMILES | AC50
1 | CC(C)CN1CCN(c2ccccc2C(C)S(=O)(=O)c2ccc(S(=O)(=O)N(C)C)cc2)CC1 (stereo not drawn) [Compound A-604, N,N-dimethyl-4-(1-{2-[4-(2-methylpropyl)piperazin-1-yl]phenyl}ethanesulfonyl)benzene-1-sulfonamide] | ≤ 2000 nM
2 | CN(C)S(=O)(=O)c1ccc(S(=O)(=O)Nc2cc(F)ccc2N2CCC3(CC2)COC(C)(C)C3)cc1 [Compound A-605, N4-(2-{3,3-dimethyl-2-oxa-8-azaspiro[4.5]decan-8-yl}-5-fluorophenyl)-N1,N1-dimethylbenzene-1,4-disulfonamide] | ≤ 2000 nM
3 | CN(C)S(=O)(=O)c1ccc(S(=O)(=O)Nc2ccc(F)cc2N2CCC3(CC2)COC(C)(C)C3)cc1 [Compound A-606, N4-(2-{3,3-dimethyl-2-oxa-8-azaspiro[4.5]decan-8-yl}-4-fluorophenyl)-N1,N1-dimethylbenzene-1,4-disulfonamide] | 2010 to 8000 nM
4 | COCC1(C)CCN(c2ccccc2NS(=O)(=O)Cc2cccc3c2COC3)CC1 [Compound A-607, 1-(1,3-dihydro-2-benzofuran-4-yl)-N-{2-[4-(methoxymethyl)-4-methylpiperidin-1-yl]phenyl}methanesulfonamide] | 2010 to 8000 nM
5 | COCC1(C)CCN(c2ccccc2NS(=O)(=O)c2ccc3c(c2)CCC3)CC1 [Compound A-608, N-{2-[4-(methoxymethyl)-4-methylpiperidin-1-yl]phenyl}-2,3-dihydro-1H-indene-5-sulfonamide] | ≤ 2000 nM
6 | COc1ccc(N2CCOCC2)c(NS(=O)(=O)Cc2ccc3c(c2)COCC3)c1 [Compound A-609, 1-(3,4-dihydro-1H-2-benzopyran-7-yl)-N-[5-methoxy-2-(morpholin-4-yl)phenyl]methanesulfonamide] | 8010 to 9990 nM
7 | COCC1(C)CCN(c2ccccc2NS(=O)(=O)Cc2ccccc2C#N)CC1 [Compound A-610, 1-(2-cyanophenyl)-N-{2-[4-(methoxymethyl)-4-methylpiperidin-1-yl]phenyl}methanesulfonamide] | 2010 to 8000 nM
8 | COCCC1CCN(c2ccccc2NS(=O)(=O)c2ccc(S(=O)(=O)N(C)C)cc2)CC1 [Compound A-611, N4-{2-[4-(2-methoxyethyl)piperidin-1-yl]phenyl}-N1,N1-dimethylbenzene-1,4-disulfonamide] | ≤ 2000 nM
9 | COCC1(C)CCN(c2ccccc2NS(=O)(=O)Cc2ccc3c(c2)COC3)CC1 [Compound A-612, 1-(1,3-dihydro-2-benzofuran-5-yl)-N-{2-[4-(methoxymethyl)-4-methylpiperidin-1-yl]phenyl}methanesulfonamide] | 2010 to 8000 nM
10 | COCC1(C)CCN(c2ccccc2NS(=O)(=O)c2ccc3c(c2)CC(C)(C)O3)CC1 [Compound A-613, N-{2-[4-(methoxymethyl)-4-methylpiperidin-1-yl]phenyl}-2,2-dimethyl-2,3-dihydro-1-benzofuran-5-sulfonamide] | ≤ 2000 nM
11 | COCC1CCN(c2ccccc2NS(=O)(=O)c2ccc3c(c2)CC(C)(C)O3)CC1 [Compound A-614, N-{2-[4-(methoxymethyl)piperidin-1-yl]phenyl}-2,2-dimethyl-2,3-dihydro-1-benzofuran-5-sulfonamide] | ≤ 2000 nM
12 | CN(C)S(=O)(=O)c1ccc(S(=O)(=O)Nc2cccc(F)c2N2CCC3(CC2)COC(C)(C)C3)cc1 [Compound A-615] | ≤ 2000 nM
13 | COCC1(C)CCN(c2ccccc2NS(=O)(=O)c2ccc(F)c(C)c2)CC1 [Compound A-616, 4-fluoro-N-{2-[4-(methoxymethyl)-4-methylpiperidin-1-yl]phenyl}-3-methylbenzene-1-sulfonamide] | 2010 to 8000 nM
14 | COCC1(C)CCN(c2ccccc2NS(=O)(=O)c2ccc(C)c(F)c2)CC1 [Compound A-617, 3-fluoro-N-{2-[4-(methoxymethyl)-4-methylpiperidin-1-yl]phenyl}-4-methylbenzene-1-sulfonamide] | 2010 to 8000 nM
15 | COCC1(C)CCN(c2ccccc2NS(=O)(=O)c2cccc(C)c2)CC1 [Compound A-618, N-{2-[4-(methoxymethyl)-4-methylpiperidin-1-yl]phenyl}-3-methylbenzene-1-sulfonamide] | 2010 to 8000 nM
16 | COCC1(C)CCN(c2ccccc2NS(=O)(=O)c2cc(C3OCCO3)cs2)CC1 [Compound A-619, 4-(1,3-dioxolan-2-yl)-N-{2-[4-(methoxymethyl)-4-methylpiperidin-1-yl]phenyl}thiophene-2-sulfonamide] | 2010 to 8000 nM
17 | COCC1(C)CCN(c2ccccc2NS(=O)(=O)c2ccc(C(F)F)cc2)CC1 [Compound A-620, 4-(difluoromethyl)-N-{2-[4-(methoxymethyl)-4-methylpiperidin-1-yl]phenyl}benzene-1-sulfonamide] | ≤ 2000 nM
18 | COCC1(C)CCN(c2ccccc2NS(=O)(=O)c2ccc(C3CC3)cc2)CC1 [Compound A-621, 4-cyclopropyl-N-{2-[4-(methoxymethyl)-4-methylpiperidin-1-yl]phenyl}benzene-1-sulfonamide] | ≤ 2000 nM
19 | COCC1(C)CCN(c2ccccc2NS(=O)(=O)c2ccc(OC(F)(F)F)cc2)CC1 [Compound A-622, N-{2-[4-(methoxymethyl)-4-methylpiperidin-1-yl]phenyl}-4-(trifluoromethoxy)benzene-1-sulfonamide] | 2010 to 8000 nM
20 | COCC1(C)CCN(c2ccccc2NS(=O)(=O)c2ccc(Br)cc2)CC1 [Compound A-623, 4-bromo-N-{2-[4-(methoxymethyl)-4-methylpiperidin-1-yl]phenyl}benzene-1-sulfonamide] | 2010 to 8000 nM
21 | COCC1(C)CCN(c2ccccc2NS(=O)(=O)C2=Cc3ccccc3OCC2)CC1 [Compound A-624, N-{2-[4-(methoxymethyl)-4-methylpiperidin-1-yl]phenyl}-2,3-dihydro-1-benzoxepine-4-sulfonamide] | 2010 to 8000 nM
22 | COCC1(C)CCN(c2ccccc2NS(=O)(=O)c2ccc3c(c2)COCC3)CC1 [Compound A-625, N-{2-[4-(methoxymethyl)-4-methylpiperidin-1-yl]phenyl}-3,4-dihydro-1H-2-benzopyran-7-sulfonamide] | ≤ 2000 nM
23 | CN(C)S(=O)(=O)c1ccc(S(=O)(=O)Nc2ccccc2N2CCN(C3CCCCC3(F)F)CC2)cc1 (stereo not drawn) [Compound A-626, N4-{2-[4-(2,2-difluorocyclohexyl)piperazin-1-yl]phenyl}-N1,N1-dimethylbenzene-1,4-disulfonamide] | ≤ 2000 nM
24 | COCC1(C)CCN(c2ccccc2NS(=O)(=O)Cc2cccc(C(C)(C)C)c2)CC1 [Compound A-627, 1-(3-tert-butylphenyl)-N-{2-[4-(methoxymethyl)-4-methylpiperidin-1-yl]phenyl}methanesulfonamide] | 2010 to 8000 nM
25 | Cc1ccc(N2CCOCC2)c(NS(=O)(=O)Cc2ccccc2)c1 [Compound A-628, N-[5-methyl-2-(morpholin-4-yl)phenyl]-1-phenylmethanesulfonamide] | 2010 to 8000 nM
26 | Cc1ccc(N2CCOCC2)c(NS(=O)(=O)Cc2ccc3c(c2)COCC3)c1 [Compound A-629, 1-(3,4-dihydro-1H-2-benzopyran-7-yl)-N-[5-methyl-2-(morpholin-4-yl)phenyl]methanesulfonamide] | 2010 to 8000 nM
27 | COCC1(C)CCN(c2ccc(OC)cc2NS(=O)(=O)c2ccc3c(c2)CCC3)CC1 [Compound A-630, N-{5-methoxy-2-[4-(methoxymethyl)-4-methylpiperidin-1-yl]phenyl}-2,3-dihydro-1H-indene-5-sulfonamide] | ≤ 2000 nM

— patent US20230104936A1, “TRPML MODULATORS” (Casma Therapeutics, Inc., priority 2019, published 2023)
